{
  "source": "patent US20110027192A1",
  "about": "“SLIM-FIT FAT BURNING WATER” (priority 2008, published 2011)",
  "key": {"[1]": {"test_system": "long chain fatty acid oxidation", "settings": "oral supplementation, slightly overweight adults; cited from earlier work"}, "[2]": {"test_system": "adults", "settings": "1200 mg for a 60 kg person, 1993 GRAS expert committee; cited from earlier work"}, "[3]": {"test_system": "cells (mitochondria)", "settings": "cited from earlier work"}, "[4]": {"test": "Solubility of L-carnitine in water (100-2000 mg per 16 oz)", "assay_type": "physicochemical", "settings": "about 100 mg to about 2000 mg per 16 fluid ounces of water", "procedure": "A pre-measured amount of L-carnitine was added into water at a final concentration range from about 100 mg to about 2000 mg per 16 fluid ounces (oz) of water."}, "[5]": {"test_system": "long chain fatty acid oxidation", "settings": "oral supplementation, healthy subjects; cited from earlier work"}},
  "data": [
    {"smiles": "C[N+](C)(C)C[C@H](O)CC(=O)[O-].O=C(O)C(O)C(O)C(=O)O", "note": "[L-Carnitine L-Tartrate]", "values": [
      {"measurement": "long chain fatty acid oxidation", "setting": "[1]", "result": "increased long chain fatty acid oxidation"},
      {"measurement": "amount that can be safely ingested by adults", "setting": "[2]", "result": 20, "unit": "mg/kg/day"}
    ]},
    {"smiles": "C[N+](C)(C)C[C@H](O)CC(=O)[O-].O=C([O-])CC(O)(CC(=O)[O-])C(=O)[O-].O=C([O-])CC(O)(CC(=O)[O-])C(=O)[O-].[Mg+2].[Mg+2].[Mg+2]", "note": "[L-Carnitine Magnesium Citrate]", "values": [
      {"measurement": "amount that can be safely ingested by adults", "setting": "[2]", "result": 20, "unit": "mg/kg/day"}
    ]},
    {"smiles": "C[N+](C)(C)C[C@H](O)CC(=O)[O-]", "note": "[L-carnitine]", "values": [
      {"measurement": "rate at which cells (mitochondria) burned fat", "setting": "[3]", "result": "increased the rate"},
      {"measurement": "solubility in the water", "setting": "[4]", "result": "completely soluble"},
      {"measurement": "long chain fatty acid oxidation as measured by 13CO2 exhalation", "setting": "[5]", "result": "improved long chain fatty acid oxidation"},
      {"measurement": "amount that can be safely ingested by adults", "setting": "[2]", "result": 20, "unit": "mg/kg/day"}
    ]}
  ]
}
